Data on eight molecules can be found in patent publication US12049460B2, “EGFR inhibitor compounds” (Recurium IP Holdings, LLC, priority 2016, dated 2024).

As usually defined, the IC50 is the point on the concentration scale where inhibition reaches its midpoint. Low values mean higher potency, high ones lower potency.

One data set has as its target EGFR L858R (Homo sapiens, UniProt P00533, L858R). Briefly: EGFR biochemical enzyme assay, L858R. The protocol: [The source words this procedure for another variant and reports this variant under the same test.] (§1) The inhibitory activity of a compound against EGFR (T790M/L858R) were determined with CisBio HTRF (homogenous time-resolved fluorescence) KinEASE TK (#62TKOPEC). The enzyme reaction contained recombinant N-terminal GST-tagged human EGFR (T790M/L858R), which phosphorylates the HTRF tyrosine kinase biotinylated substrate.
(§2) The sequence of the substrate is proprietary to CisBio. Test compounds were serially diluted in 100% (v/v) DMSO before being acoustically dispensed from an Echo 555 (Labcyte) into black Corning 1536-well assay plates. Kinase activity assays were performed in a total reaction volume of 3 μL per well. A 1.5 μL enzyme reaction consisted of 1.6 nM EGFR ([…], L858R), 1 mM DTT, and 10 mM MgCl2. A 1.5 μL substrate mix consisted of 1 μM TK substrate, 30 μM ATP, 1 mM DTT, and 10 mM MgCl2. Following a 50 mins incubation, 3 μL of stop mix was added, which consisted of 250 nM Strep-XL665 and TK Ab-Cryptate diluted in kit detection buffer. The plates were incubated for 1 h before being read on Pherastar using standard HTRF settings. N-terminal GST-tagged recombinant human EGF receptor, with amino acids 696-end containing the T790M and L858R mutations, was obtained from Millipore.

In a further data set the target is INSR (Homo sapiens, UniProt P06213). Briefly: Biochemical enzyme assay, INSR.
Sequence of INSR (P06213 28-1382, species assumed): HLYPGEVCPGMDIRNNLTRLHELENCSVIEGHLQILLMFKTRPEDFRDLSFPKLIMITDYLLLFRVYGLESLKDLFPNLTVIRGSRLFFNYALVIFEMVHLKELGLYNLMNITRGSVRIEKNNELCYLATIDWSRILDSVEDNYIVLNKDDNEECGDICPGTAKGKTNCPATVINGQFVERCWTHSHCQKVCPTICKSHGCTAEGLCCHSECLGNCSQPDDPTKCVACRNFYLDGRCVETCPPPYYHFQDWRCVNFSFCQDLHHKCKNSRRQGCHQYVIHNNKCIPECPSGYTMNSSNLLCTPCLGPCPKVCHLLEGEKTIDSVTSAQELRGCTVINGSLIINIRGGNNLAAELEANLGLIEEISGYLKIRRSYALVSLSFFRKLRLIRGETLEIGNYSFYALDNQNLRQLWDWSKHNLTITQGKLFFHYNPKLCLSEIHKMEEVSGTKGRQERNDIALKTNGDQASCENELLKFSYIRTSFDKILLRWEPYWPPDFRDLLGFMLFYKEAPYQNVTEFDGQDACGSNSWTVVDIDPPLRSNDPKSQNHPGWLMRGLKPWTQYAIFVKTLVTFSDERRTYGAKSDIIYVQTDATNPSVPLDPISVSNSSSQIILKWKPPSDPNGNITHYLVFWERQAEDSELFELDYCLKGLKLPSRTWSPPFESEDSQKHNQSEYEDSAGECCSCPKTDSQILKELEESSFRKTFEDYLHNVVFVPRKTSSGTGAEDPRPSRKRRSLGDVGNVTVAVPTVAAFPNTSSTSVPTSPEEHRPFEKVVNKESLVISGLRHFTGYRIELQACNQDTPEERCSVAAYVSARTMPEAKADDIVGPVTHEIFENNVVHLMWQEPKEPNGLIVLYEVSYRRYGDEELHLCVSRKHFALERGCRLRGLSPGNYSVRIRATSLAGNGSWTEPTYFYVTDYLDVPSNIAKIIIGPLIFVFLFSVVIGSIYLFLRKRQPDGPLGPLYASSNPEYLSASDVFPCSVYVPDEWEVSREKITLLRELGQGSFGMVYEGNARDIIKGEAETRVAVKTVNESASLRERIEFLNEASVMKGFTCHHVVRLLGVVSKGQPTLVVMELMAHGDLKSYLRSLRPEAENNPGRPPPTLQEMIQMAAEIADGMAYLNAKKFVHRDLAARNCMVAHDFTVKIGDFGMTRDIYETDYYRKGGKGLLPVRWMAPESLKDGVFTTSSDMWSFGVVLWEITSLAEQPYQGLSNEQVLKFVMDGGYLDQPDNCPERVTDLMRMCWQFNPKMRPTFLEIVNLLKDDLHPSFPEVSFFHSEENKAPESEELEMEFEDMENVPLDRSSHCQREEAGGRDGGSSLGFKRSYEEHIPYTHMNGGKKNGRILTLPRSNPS
The target of the next data set is T1, EGFR Del-19 (Homo sapiens, UniProt P00533).
T1 construct: as for the T790M/L858R enzyme of the same protocol
T1 sequence (P00533 with tags, fused parts or gaps DEL746-750): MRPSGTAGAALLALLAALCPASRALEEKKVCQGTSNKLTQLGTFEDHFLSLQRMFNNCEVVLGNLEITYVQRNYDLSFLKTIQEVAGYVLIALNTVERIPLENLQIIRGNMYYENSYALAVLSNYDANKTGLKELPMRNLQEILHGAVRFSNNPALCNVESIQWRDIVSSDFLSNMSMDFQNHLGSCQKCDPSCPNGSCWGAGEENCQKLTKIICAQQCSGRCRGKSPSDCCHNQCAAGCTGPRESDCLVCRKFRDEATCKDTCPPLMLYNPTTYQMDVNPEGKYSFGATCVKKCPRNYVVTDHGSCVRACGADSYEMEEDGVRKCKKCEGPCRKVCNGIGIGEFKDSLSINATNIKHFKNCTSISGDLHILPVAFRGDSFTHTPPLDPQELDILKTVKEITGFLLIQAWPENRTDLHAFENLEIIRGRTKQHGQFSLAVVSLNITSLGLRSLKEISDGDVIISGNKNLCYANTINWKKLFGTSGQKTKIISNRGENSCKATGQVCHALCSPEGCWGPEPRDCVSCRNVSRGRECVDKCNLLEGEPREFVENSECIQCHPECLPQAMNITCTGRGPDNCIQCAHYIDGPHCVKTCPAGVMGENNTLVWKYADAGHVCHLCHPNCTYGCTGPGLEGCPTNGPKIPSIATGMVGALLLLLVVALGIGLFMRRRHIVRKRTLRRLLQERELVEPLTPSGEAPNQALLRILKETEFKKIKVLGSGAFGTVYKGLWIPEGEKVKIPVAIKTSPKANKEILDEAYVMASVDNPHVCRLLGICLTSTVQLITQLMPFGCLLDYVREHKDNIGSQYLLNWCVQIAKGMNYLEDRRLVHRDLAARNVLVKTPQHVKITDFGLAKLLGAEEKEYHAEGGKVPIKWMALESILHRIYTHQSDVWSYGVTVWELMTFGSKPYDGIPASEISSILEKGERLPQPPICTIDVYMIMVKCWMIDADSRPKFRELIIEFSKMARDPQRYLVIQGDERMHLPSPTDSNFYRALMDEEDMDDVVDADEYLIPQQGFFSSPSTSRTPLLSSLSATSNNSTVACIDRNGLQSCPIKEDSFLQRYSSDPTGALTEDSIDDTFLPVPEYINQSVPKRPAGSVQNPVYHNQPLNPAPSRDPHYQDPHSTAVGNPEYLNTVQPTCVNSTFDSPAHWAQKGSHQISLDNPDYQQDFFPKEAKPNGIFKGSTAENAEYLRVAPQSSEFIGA
Briefly: EGFR biochemical enzyme assay, Del-19. The protocol:
[The source words this procedure for another variant and reports this variant under the same test.] as §1, §2

For a further data set, the target named is IGF1R (Homo sapiens, UniProt P08069). Briefly: Biochemical enzyme assay, IGF1R.
A further data set deals with hepatocytes. Briefly: Metabolite identification in hepatocytes, human. The class given is in vitro ADME. Particulars: 10 μM, 240 min, formation of AZ5104 via de-alkylation on the indole ring. The protocol: Suspended hepatocytes in enough incubation medium to yield ˜1.5×10^6 cells/mL. Pipetted 199 μL of viable hepatocytes or the boiled hepatocytes into each wells of a 96-well non-coated plate. Placed the plate in the incubator on an orbital shaker to allow the hepatocytes to warm for 10 minutes. Pipetted 1 μL of the 2 mM test compound(s) into respective wells of the 96-well non-coated plate to start the reaction with final concentration of 10 μM. Returned the plate to the incubator and placed on an orbital shaker. Incubated at 37° C., 5% CO2 and 90-95% relative humidity with shaking at 500 rpm on the shaker for 240 min. After incubation, transferred media from each well to a tube containing 400 μL cold methanol, washed the well with 200 μL cold methanol and then transferred the media to the corresponding tube. Centrifuged tubes for 10 minutes at 16,000 g. Aliquots of 200 μL of the supernatants were mixed with 200 μL of pure water and used for LC-MS/MS analysis. UHPLC-MS/MS analysis was conducted using a Dionex UltiMate 3000 UHPLC system (Thermo Fisher Scientific, USA) and Thermo Scientific Q Exactive (Thermo Fisher Scientific, USA) fitted with a HESI probe. […]

The next data set concerns A431 (WT). Briefly: EGFR cell proliferation assay (CellTiter-Glo), A431. The class given is cell-based. Particulars: Homo sapiens, A-431, 3-5 days of compound treatment. Here is the method:
(§3) Cell Lines: A431 (WT), H1975 (L858R/T790M), PC9 (E746-A750 deletion): A431 cells were grown in DMEM (Invitrogen, Carlsbad, CA) supplemented with 10% FBS (HyClone, South Logan, UT) and 1% Penicillin-Streptomycin (P/S, Lonza, Walkersville, MD). H1975 cells were grown in RPMI 1640 (Invitrogen) supplemented with 10% FBS and 1% P/S. […] PC-9 cells were obtained from Japan. All cells were maintained and propagated as monolayer cultures at 37° C. in a humidified 5% CO2 incubator. All cells were cultured according to recommendations.
(§4) Cell proliferation was measured using the CellTiter-Glo® Luminescent Cell Viability Assay. The assay involved the addition of a single reagent (CellTiter-Glo® Reagent) directly to cells cultured in serum-supplemented medium. The assay used a one-step addition to induce cell lysis and generate a luminescent signal proportional to the amount of ATP present, which is directly proportional to the number of metabolically active cells present in culture.
(§5) Each compound evaluated was prepared as a DMSO stock solution (10 mM). Compounds were tested in duplicate on each plate, with an 11-point serial dilution curve (1:3 dilution). Compound treatment (50 μL) was added from the compound dilution plate to the cell plate. The highest compound concentration was 1 or 10 μM (final), with a 0.3% final DMSO (#D-5879, Sigma, St Louis, MO) concentration. Plates were then incubated at 37° C., 5% CO2. After 3-5 days of compound treatment, CellTiter-Glo® Reagent (#G7573, Promega, Madison, WI) was prepared in one of two ways. If thawing a frozen aliquot of CellTiter-Glo® Reagent, the aliquot was thawed and equilibrated to RT prior to use while keeping it protected from light. Alternatively, new bottles of CellTiter-Glo® Buffer and CellTiter-Glo® Substrate were thawed and equilibrated to RT prior to use. CellTiter-Glo® Buffer (100 mL) was transferred into the amber bottle containing CellTiter-Glo® Substrate to reconstitute the lyophilized enzyme/substrate mixture, forming the CellTiter-Glo® Reagent. The reconstituted reagent was mixed by gently inverting the contents to obtain a homogeneous solution, and went into solution easily in less than 1 min. Any unused reconstituted CellTiter-Glo® Reagent was immediately aliquoted and frozen at −20° C., and protected from light. Cell plates were equilibrated at RT for approximately 30 mins. An equi-volume amount of CellTiter-Glo® Reagent (100 μL) was added to each well. Plates were mixed for 2 mins on an orbital shaker to induce cell lysis, and then were allowed to incubate at RT for 10 mins to stabilize the luminescent signal. Luminescence was recorded using the PerkinElmer EnVision Excite Multilabel Reader used for endpoint reading for luminescence detection (Waltham, MA). Data was analyzed using a four-parameter fit in Microsoft Excel.
(In general: ATP-based viability assays read luminescence as a measure of living cells.)

A further data set concerns PC9 (E746-A750 deletion). Briefly: EGFR cell proliferation assay (CellTiter-Glo), PC9. The class given is cell-based. The following applies: 3-5 days of compound treatment. The protocol:
as §3, §4, §5

In another data set the target is T2, EGFR (T790M/L858R) (Homo sapiens, UniProt P00533, L858R/T790M).
T2 construct: with amino acids 696-end containing the T790M and L858R mutations; GST (N); purchased Millipore
T2 sequence (P00533 696-1210 T790M/L858R): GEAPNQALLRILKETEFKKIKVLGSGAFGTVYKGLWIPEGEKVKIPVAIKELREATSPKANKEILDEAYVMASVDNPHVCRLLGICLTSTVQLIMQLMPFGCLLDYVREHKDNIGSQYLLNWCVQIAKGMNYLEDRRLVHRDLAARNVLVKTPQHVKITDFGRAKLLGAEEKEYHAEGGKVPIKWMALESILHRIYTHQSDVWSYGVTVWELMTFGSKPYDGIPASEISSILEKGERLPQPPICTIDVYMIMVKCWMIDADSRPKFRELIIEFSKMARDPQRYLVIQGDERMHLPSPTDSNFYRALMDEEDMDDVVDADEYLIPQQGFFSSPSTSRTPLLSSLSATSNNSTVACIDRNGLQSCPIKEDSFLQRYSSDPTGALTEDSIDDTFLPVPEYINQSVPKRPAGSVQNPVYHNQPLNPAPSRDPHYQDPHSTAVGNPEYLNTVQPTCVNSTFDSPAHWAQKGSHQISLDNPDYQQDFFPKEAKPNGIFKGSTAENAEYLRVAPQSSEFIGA
Briefly: EGFR biochemical enzyme assay (CisBio HTRF KinEASE TK). The following applies: 30 μM ATP in substrate mix, 50 mins incubation. The protocol:
as §1, §2
A general note: TR-FRET usually uses a lanthanide donor and a delayed reading to cut background.

The next data set has as its target EGFR Wt (Homo sapiens, UniProt P00533). Briefly: EGFR biochemical enzyme assay, Wt. Here is the method: [The source words this procedure for another variant and reports this variant under the same test.] as §1, §2
The subject of another data set is H1975 (L858R/T790M). Briefly: EGFR cell proliferation assay (CellTiter-Glo), H1975. Type of data set: cell-based. The following applies: Homo sapiens, NCI-H1975, 3-5 days of compound treatment. Here is the method: as §3, §4, §5

Sequence of EGFR Wt (P00533 25-1210): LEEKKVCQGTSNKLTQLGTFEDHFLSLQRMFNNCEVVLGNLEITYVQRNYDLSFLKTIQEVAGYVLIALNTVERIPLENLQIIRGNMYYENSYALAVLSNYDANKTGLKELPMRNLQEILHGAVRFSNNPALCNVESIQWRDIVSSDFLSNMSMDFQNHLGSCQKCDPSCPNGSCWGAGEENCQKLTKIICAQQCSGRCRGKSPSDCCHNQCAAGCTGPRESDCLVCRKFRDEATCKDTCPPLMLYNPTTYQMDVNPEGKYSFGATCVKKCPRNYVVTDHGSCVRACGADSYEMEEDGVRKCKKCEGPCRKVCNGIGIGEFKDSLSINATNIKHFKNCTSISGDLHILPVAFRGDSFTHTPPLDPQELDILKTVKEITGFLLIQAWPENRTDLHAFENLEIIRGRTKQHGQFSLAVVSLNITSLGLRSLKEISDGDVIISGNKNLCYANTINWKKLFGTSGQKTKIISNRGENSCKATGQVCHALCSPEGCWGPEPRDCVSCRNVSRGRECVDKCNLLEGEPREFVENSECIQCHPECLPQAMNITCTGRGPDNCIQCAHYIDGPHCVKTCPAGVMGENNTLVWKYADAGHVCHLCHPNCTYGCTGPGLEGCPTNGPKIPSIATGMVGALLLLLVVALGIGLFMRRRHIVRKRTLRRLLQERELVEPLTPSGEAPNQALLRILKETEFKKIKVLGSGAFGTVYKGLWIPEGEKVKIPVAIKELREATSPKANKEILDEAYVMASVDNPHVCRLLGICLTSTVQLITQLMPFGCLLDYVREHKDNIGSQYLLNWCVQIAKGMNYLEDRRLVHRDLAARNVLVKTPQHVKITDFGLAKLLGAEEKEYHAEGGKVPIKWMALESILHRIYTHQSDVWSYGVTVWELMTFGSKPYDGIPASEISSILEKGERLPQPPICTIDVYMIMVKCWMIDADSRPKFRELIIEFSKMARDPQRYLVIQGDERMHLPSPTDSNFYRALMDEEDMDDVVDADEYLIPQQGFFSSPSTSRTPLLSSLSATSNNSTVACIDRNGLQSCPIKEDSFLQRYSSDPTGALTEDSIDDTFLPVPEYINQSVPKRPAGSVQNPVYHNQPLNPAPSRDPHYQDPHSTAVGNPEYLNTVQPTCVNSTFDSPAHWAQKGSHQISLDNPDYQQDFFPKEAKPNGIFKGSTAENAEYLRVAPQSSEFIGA

In the case of `C=CC(=O)Nc1cc(Nc2nccc(-c3cn(C45CC(C4)C5)c4ccccc34)n2)c(OC)cc1N(C)CCN(C)C` [Example 1, N-(5-((4-(1-(bicyclo[1.1.1]pentan-1-yl)-1H-indol-3-yl)pyrimidin-2-yl)amino)-2-((2-(dimethylamino)ethyl)(methyl)amino)-4-methoxyphenyl)acrylamide], the IC50 at EGFR L858R is not above 0.01 µM; on INSR it was not below 0.1 µM; against EGFR Del-19, not above 0.01 µM; against IGF1R, not below 0.1 µM; with A431 (WT), not below 0.3 µM; with PC9 (E746-A750 deletion), not above 0.05 µM. Further, the figures for the IC50 against EGFR (T790M/L858R), against EGFR Wt and in the data set with H1975 (L858R/T790M) were not above 0.01 µM, not above 0.01 µM and not above 0.05 µM, respectively. In the data set on hepatocytes, the “Metabolite AZ5104, Human” value was “did not lead to the formation”.
For `C=CC(=O)Nc1cc(Nc2nccc(-c3cn(C45CC(C#N)(C4)C5)c4ccccc34)n2)c(OC)cc1N(C)CCN(C)C` [Example 2, N-(5-((4-(1-(3-cyanobicyclo[1.1.1]pentan-1-yl)-1H-indol-3-yl)pyrimidin-2-yl)amino)-2-((2-(dimethylamino)ethyl)(methyl)amino)-4-methoxyphenyl)acrylamide], the half-inhibitory concentration (IC50) against INSR was not below 0.1 µM; against EGFR Del-19, not above 0.01 µM; against IGF1R, not below 0.1 µM; in the data set on A431 (WT), not below 0.3 µM; in the data set with PC9 (E746-A750 deletion), 0.05 to 0.3 µM; against EGFR (T790M/L858R) it was not above 0.01 µM. The IC50 is not above 0.01 µM at EGFR Wt and 0.05 to 0.3 µM in the data set on H1975 (L858R/T790M).
As to `C=CC(=O)Nc1cc(Nc2ncc(C#N)c(-c3cn(C45CC(C4)C5)c4ccccc34)n2)c(OC)cc1N(C)CCN(C)C` [Example 3, N-(5-((4-(1-(bicyclo[1.1.1]pentan-1-yl)-1H-indol-3-yl)-5-cyanopyrimidin-2-yl)amino)-2-((2-(dimethylamino)ethyl)(methyl)amino)-4-methoxyphenyl)acrylamide], the IC50 was not below 0.1 µM against INSR; not above 0.01 µM on EGFR Del-19; not below 0.1 µM against IGF1R; 0.05 to 0.3 µM with A431 (WT); not above 0.05 µM with PC9 (E746-A750 deletion); not above 0.01 µM against EGFR (T790M/L858R). Also, the IC50 against EGFR Wt was not above 0.01 µM; in the data set with H1975 (L858R/T790M), not above 0.05 µM.
As for `C=CC(=O)Nc1cc(Nc2nccc(-c3cn(C)c4ccccc34)n2)c(OC)cc1N(C)C12CC(CN(C)C)(C1)C2` [Example 4, N-(2-((3-((dimethylamino)methyl)bicyclo[1.1.1]pentan-1-yl)(methyl)amino)-4-methoxy-5-((4-(1-methyl-1H-indol-3-yl)pyrimidin-2-yl)amino)phenyl)acrylamide], the IC50 on INSR is not below 0.1 µM; at EGFR Del-19 it was not below 0.1 µM; on IGF1R, not below 0.1 µM; in the data set on A431 (WT) it was not below 0.3 µM; in the data set on PC9 (E746-A750 deletion), not below 0.3 µM; against EGFR (T790M/L858R), not below 0.1 µM. Further, the IC50 against EGFR Wt was 0.01 to 0.1 µM; with H1975 (L858R/T790M) it was not below 0.3 µM.
On to `C=CC(=O)Nc1cc(Nc2nccc(-c3nn(C45CC(C4)C5)c4ccccc34)n2)c(OC)cc1N(C)CCN(C)C` [Example 5, N-(5-((4-(1-(bicyclo[1.1.1]pentan-1-yl)-1H-indazol-3-yl)pyrimidin-2-yl)amino)-2-((2-(dimethylamino)ethyl)(methyl)amino)-4-methoxyphenyl)acrylamide], for which the IC50 at INSR was not below 0.1 µM; on EGFR Del-19 it was not above 0.01 µM; on IGF1R, not below 0.1 µM; with A431 (WT) it was not below 0.3 µM; in the data set on PC9 (E746-A750 deletion) it was 0.05 to 0.3 µM; against EGFR (T790M/L858R), not above 0.01 µM. Also, the IC50 was not above 0.01 µM against EGFR Wt and not above 0.05 µM with H1975 (L858R/T790M).
Turning to `C=CC(=O)Nc1cc(Nc2nccc(-c3cn(C)c4ccccc34)n2)c(OC)cc1N(C)C12CC(N(C)C)(C1)C2` [Example 6, N-(2-((3-(dimethylamino)bicyclo[1.1.1]pentan-1-yl)(methyl)amino)-4-methoxy-5-((4-(1-methyl-1H-indol-3-yl)pyrimidin-2-yl)amino)phenyl)acrylamide], the IC50 on EGFR L858R is not below 0.1 µM; against INSR, not below 0.1 µM; on EGFR Del-19, not below 0.1 µM; against IGF1R, not below 0.1 µM; in the data set with A431 (WT), not below 0.3 µM; with PC9 (E746-A750 deletion), not below 0.3 µM. Moreover, the IC50 is not above 0.01 µM on EGFR (T790M/L858R), not below 0.1 µM at EGFR Wt and not below 0.3 µM in the data set on H1975 (L858R/T790M).
As to `C=CC(=O)Nc1cc(Nc2nccc(-c3cn(C45CC(F)(C4)C5)c4ccccc34)n2)c(OC)cc1N(C)CCN(C)C` [Example 7, N-(2-((2-(dimethylamino)ethyl)(methyl)amino)-5-((4-(1-(3-fluorobicyclo[1.1.1]pentan-1-yl)-1H-indol-3-yl)pyrimidin-2-yl)amino)-4-methoxyphenyl)acrylamide], the IC50 at EGFR L858R was not above 0.01 µM; on EGFR Del-19 it was not above 0.01 µM; in the data set on A431 (WT) it was not below 0.3 µM; in the data set on PC9 (E746-A750 deletion), not below 0.3 µM; against EGFR (T790M/L858R) it was not above 0.01 µM; at EGFR Wt, not above 0.01 µM. The molecule further had an IC50 in the data set with H1975 (L858R/T790M) not above 0.05 µM.
On to `C=CC(=O)Nc1cc(Nc2nccc(-c3cn(C45CC(C4)C5)c4ccccc34)n2)c(OC)cc1N(C)CCNC` [Example 8, N-(5-((4-(1-(Bicyclo[1.1.1]pentan-1-yl)-1H-indol-3-yl)pyrimidin-2-yl)amino)-4-methoxy-2-(methyl(2-(methylamino)ethyl)amino)phenyl)acrylamide], for which the IC50 against INSR was not below 0.1 µM; against EGFR Del-19 it was not above 0.01 µM; against IGF1R it was not below 0.1 µM; in the data set on A431 (WT) it was not below 0.3 µM; with PC9 (E746-A750 deletion), not above 0.05 µM; against EGFR (T790M/L858R), not above 0.01 µM. Moreover, the IC50 on EGFR Wt is 0.01 to 0.1 µM; in the data set with H1975 (L858R/T790M), not above 0.05 µM.
